Laboratory results from patent US20110092540A1, “SUBSTITUTED N-PHENYL-2,3-DIHYDROIMIDAZO[2,1-B]THIAZOLE-5-SULFONAMIDE DERIVATIVES AS 5-HT6 LIGANDS” (priority 2008, published 2011).
Where a name gives a salt, the structure may show the parent alone.

Assays:
[1] = target: T1, 5HT6-human recombinant receptor (Homo sapiens, UniProt P50406); test: Binding to serotonin receptor 5HT6 ([3H]-LSD radioligand displacement); set-up: purchased Receptor Biology; host or cells: HEK-293 cells (membranes); details: membranes of HEK-293 cells expressing 5HT6-human recombinant receptor; [3H]-LSD 2.7 nM; 60 min, 37° C.
T1 sequence (P50406 whole entry): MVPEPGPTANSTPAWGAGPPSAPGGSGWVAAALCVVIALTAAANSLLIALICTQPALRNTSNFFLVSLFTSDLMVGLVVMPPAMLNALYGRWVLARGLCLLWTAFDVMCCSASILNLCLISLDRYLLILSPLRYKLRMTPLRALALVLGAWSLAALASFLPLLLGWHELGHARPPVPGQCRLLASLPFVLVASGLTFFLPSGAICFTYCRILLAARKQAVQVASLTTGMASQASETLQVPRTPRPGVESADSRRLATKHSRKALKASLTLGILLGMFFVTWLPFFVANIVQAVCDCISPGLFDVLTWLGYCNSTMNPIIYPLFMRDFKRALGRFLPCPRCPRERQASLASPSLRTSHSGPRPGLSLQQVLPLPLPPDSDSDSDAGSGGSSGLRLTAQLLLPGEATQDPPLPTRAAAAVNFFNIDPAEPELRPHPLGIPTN
Procedure: Binding to Serotonin Receptor 5HT6
Cell membranes of HEK-293 cells expressing the 5HT6-human recombinant receptor were supplied by Receptor Biology. In said membranes the receptor concentration is 2.18 pmol/mg protein and the protein concentration is 9.17 mg/ml. The experimental protocol follows the method of B. L. Roth et al. [B. L. Roth et al., The Journal of Pharmacology and Experimental Therapeutics, 1994, 268. 1403] with the following slight changes. The respective part of the literature description is hereby incorporated by reference and forms part of the disclosure.
The commercial membrane is diluted (1:40 dilution) with the binding buffer: 50 mM Tris-HCl, 10 mM MgCl2, 0.5 mM EDTA (pH 7.4). The radioligand used is [^3H]-LSD at a concentration of 2.7 nM with a final volume of 200 μl. incubation is initiated by adding 100 μl of membrane suspension, (≈22.9 μg membrane protein), and is prolonged for 60 minutes at a temperature of 37° C. The incubation is ended by fast filtration in a Brandel Cell Harvester through fiber glass filters made by Schleicher & Schuell GF 3362 pretreated with a solution of polyethylenimine at 0.5%. The filters are washed three times with three milliliters of buffer Tris-HCl 50 mM pH 7.4. The filters are transferred to flasks and 5 ml of Ecoscint H liquid scintillation cocktail are added to each flask. The flasks are allowed to reach equilibrium for several hours before counting with a Wallac Winspectral 1414 scintillation counter. Non-specific binding is determined in the presence of 100 μM of serotonin. Tests were made in triplicate. The inhibition constants (Ki, nM) were calculated by non-linear regression analysis using the program EBDA/LIGAND described in Munson and Rodbard, Analytical Biochemistry, 1980, 107, 220, which is hereby incorporated by reference and forms part of the disclosure.

[2] = target: T1, 5HT6-human recombinant receptor; details: in words; Fisas, A. et al., Brit. J. Pharm. 2006; cited from earlier work
[3] = in words; Fisas, A. et al., Brit. J. Pharm. 2006; cited from earlier work

| Ki [1] [nM] | Structure (SMILES) | binding for the recombinant human 5-HT6 receptor [2] | body weight [3] | food intake [3] |
| --- | --- | --- | --- | --- |
| 8.4 | O=S(=O)(Nc1ccc2c(c1)CCNC2)c1c(Cl)nc2n1CCS2 [Compound 1, 6-Chloro-2,3-dihydro-imidazo[2,1-b] thiazole-5-sulfonic acid (1,2,3,4-tetrahydro-isoquinolin-6-yl)-amide hydrochloride] | – | – | – |
| 5.4 | CC(=O)N1CCc2cc(NS(=O)(=O)c3c(Cl)nc4n3CCS4)ccc21 [Compound 4, 6-Chloro-2,3-dihydro-imidazo[2,1-b] thiazole-5-sulfonic acid (1-acetyl-2,3-dihydro-1H-indol-5-yl)-amide] | – | – | – |
| 46 | O=C1CCc2ccc(NS(=O)(=O)c3c(Cl)nc4n3CCS4)cc21 [Compound 10, 6-Chloro-2,3-dihydro-imidazo[2,1-b] thiazole-5-sulfonic acid (3-oxo-indan-5-yl)-amide] | – | – | – |
| – | CN(C)CCc1c[nH]c2ccc(NS(=O)(=O)c3ccc4c(Cl)cccc4c3)cc12 [Compound E-6837, 5-chloro-N[3-(2-(dimethylamino)ethyl)-1H-indol-5-yl] naphthalene-2-sulphonamide] | selective and high affinity binding | significant body weight loss | reduction in the food intake |

| Structure (SMILES) | Ki [1] [nM] | binding for the recombinant human 5-HT6 receptor [2] | body weight [3] | food intake [3] |
| --- | --- | --- | --- | --- |
| CN(C)CCc1c[nH]c2ccc(NS(=O)(=O)c3c(Cl)nc4n3CCS4)cc12 [Compound 3, 6-Chloro-2,3-dihydro-imidazo[2,1-b] thiazole-5-sulfonic acid [3-(2-dimethylamino-ethyl)-1H-indol-5-yl]-amide hydrochloride] | 16.9 | – | – | – |
